These results are taken from patent publication US20210060016A1, “ANTICANCER AGENT” (JAPANESE FOUNDATION FOR CANCER RESEARCH, priority 2017, published 2021).

In one test the target is T1, tankyrase-2 (Homo sapiens, UniProt Q9H2K2).
T1 sequence (Q9H2K2 1-1166): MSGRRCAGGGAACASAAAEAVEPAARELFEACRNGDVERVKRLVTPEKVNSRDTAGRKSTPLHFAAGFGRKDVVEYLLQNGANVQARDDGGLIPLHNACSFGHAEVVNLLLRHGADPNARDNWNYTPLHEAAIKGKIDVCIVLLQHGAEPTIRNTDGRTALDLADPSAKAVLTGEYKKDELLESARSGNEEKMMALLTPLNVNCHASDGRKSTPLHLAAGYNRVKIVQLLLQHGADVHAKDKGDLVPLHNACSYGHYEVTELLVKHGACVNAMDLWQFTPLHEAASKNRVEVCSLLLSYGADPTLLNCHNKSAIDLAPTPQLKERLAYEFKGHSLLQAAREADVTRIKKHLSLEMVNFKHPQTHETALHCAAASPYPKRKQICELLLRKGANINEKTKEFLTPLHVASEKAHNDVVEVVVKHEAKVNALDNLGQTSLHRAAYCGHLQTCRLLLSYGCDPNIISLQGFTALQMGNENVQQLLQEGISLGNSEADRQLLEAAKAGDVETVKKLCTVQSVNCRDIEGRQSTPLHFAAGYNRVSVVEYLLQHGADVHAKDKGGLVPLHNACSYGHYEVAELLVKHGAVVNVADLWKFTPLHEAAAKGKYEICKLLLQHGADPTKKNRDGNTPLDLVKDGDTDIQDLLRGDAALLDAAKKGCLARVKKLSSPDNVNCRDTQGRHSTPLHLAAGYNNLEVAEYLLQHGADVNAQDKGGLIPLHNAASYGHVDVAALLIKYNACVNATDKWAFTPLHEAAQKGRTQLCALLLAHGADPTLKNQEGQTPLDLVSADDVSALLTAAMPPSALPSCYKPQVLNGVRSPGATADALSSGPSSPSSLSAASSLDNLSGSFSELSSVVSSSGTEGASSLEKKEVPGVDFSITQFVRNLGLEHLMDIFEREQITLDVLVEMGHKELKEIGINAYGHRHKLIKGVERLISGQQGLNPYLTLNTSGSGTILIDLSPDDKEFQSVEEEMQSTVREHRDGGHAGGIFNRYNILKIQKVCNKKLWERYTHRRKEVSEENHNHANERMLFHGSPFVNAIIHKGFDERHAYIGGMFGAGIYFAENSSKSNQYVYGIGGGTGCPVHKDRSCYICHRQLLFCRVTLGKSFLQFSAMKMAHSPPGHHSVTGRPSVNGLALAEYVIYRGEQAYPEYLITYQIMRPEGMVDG
Kind of test: X-ray diffraction of tankyrase-2 crystal soaked with the compound. It counts as binding. The source says:
In the present invention, whether the tankyrase inhibitory compound is a nicotinamide-type compound or an adenosine-type compound can be determined by X-ray diffraction, more specifically a method in which a complex is crystallized from a mixed liquid of a tankyrase crystal prepared beforehand and the tankyrase inhibitory compound, and subjected to X-ray diffraction (soaking method), or a method in which a complex is crystallized from a mixed liquid having the tankyrase inhibitory compound coexisting with tankyrase in a state before the crystallization, and subjected to X-ray diffraction (co-crystallization). Whether the tankyrase inhibitory compound is a dual-type compound can be determined by preparing a crystal under any one of the above-described conditions, and performing X-ray diffraction.
X-ray diffraction data of a tankyrase-2 crystal soaked with the compound prepared in Compound Example 1 was measured with BL26B2 Beam Line in a large synchrotron radiation facility Spring-8 (Sayo-gun, Hyogo). The wavelength of the X-ray was 1.000 Å, and MX-225 (Rayonix, LLC) was used as a detector. The diffraction data was treated with XDS (Kabsch, 2010) and the CCP4 program (Winn et al., 2011).

For test [1], the system named is human colorectal cancer cell line COLO-320DM. Kind of test: Cell proliferation inhibitory activity test (Celltiter-Glo). It counts as cell-based. The conditions noted are these: 96 hours, read-out: COLO-320DM (cell proliferation inhibitory activity), G150 rating. The protocol: The cell proliferation inhibitory activity of the compound, which had been prepared in each of Compound Examples, against the human colorectal cancer cell line COLO-320DM was evaluated by Celltiter-Glo Luminescent Cell Viability Assay (Promega Corporation; G7573). COLO-320DM cells were cultured in RPMI-1640 medium containing 2 mM glutamine (Wako Pure Chemical Industries, Ltd; 189-02025) supplemented with 10% fetal bovine serum. The cultured cells were washed with PBS, and then dissociated with trypsin/EDTA, and a cell solution with 3×10^4 cells/mL was prepared.
Subsequently, the cell solution was seeded in a 96-well microplate (Thermo/Nunc Company; 136101) in an amount of 70 μL per well, and cultured overnight under the condition of 37° C. and 5% COz. The next day, a test compound solution obtained by diluting the test compound (DMSO solution) with a cell culture medium (final concentration of DMSO was 1%) was added in an amount of 10 μL per well, and the mixture was reacted under the condition of 37° C. and 5% CO2 for 96 hours (a 1% DMSO solution was used as a control). Thereafter, a Celltiter-Glo Luminescent Cell Viability Assay reagent was added (Promega Corporation; G7573) in an amount of 80 μL per well, the mixture was stirred with a shaker for 2 minutes while light was blocked with an aluminum foil, and the mixture was incubated at room temperature for 10 minutes.
Thereafter, a luminescence signal was measured with a luminometer (Biotech Company; Synergy). The ratio of cell proliferation in each compound addition group to cell proliferation in a control group containing no test compound solution, where cell proliferation in the control group is 100%, was determined, and the value of a compound concentration necessary for suppressing the amount of residual cells to 50% of that in the control (G150) was calculated as the cell proliferation inhibitory activity. For the COLO-320DM (cell proliferation inhibitory activity against COLO-320DM) of each test compound as measured through the above-mentioned method, a test compound having a G150 value of less than 1 μM was rated “A”, a test compound having a G150 value of 1 μM or more and less than 10 μM was rated “B”, a test compound having a G150 value of 10 μM or more was rated “C”, and an unevaluated test compound was designated as “NT”.
(In general: In ATP-based viability assays light output follows the ATP content of the culture.)

`CCOc1ccc(-c2n[nH]nc2[C@H]2NC(=O)c3cccc(C)c3N2)cc1` [Compound Example 101, (2R)-2-[5-(4-Ethoxyphenyl)-2H-1,2,3-triazol-4-yl]-8-methyl-2,3-dihydro-1H-quinazolin-4-one]: the “binding pocket type by X-ray diffraction” value on tankyrase-2 is reported as “nicotinamide-type compound which binds to the nicotinamide binding pocket of tankyrase”. Also, the IC50 in test [1] is less than 1 µM.

`COc1ccc(-c2c[nH]nc2C2NC(=O)c3cccc(C)c3N2)cc1` (stereo not drawn) [Compound Example 113, 2-[4-(4-Methoxyphenyl)-1H-pyrazol-3-yl]-8-methyl-2,3-dihydro-1H-quinazolin-4-one]: the IC50 in test [1] was no less than 10 µM.
